# Measured values from paper PMC9535023, “Inhibition of phospholipase D1 induces immunogenic cell death and potentiates cancer immunotherapy in colorectal cancer” (Experimental & Molecular Medicine, 2022).
# Tests used:
# CRC cells = experiment: TCF transactivation in CRC cells with an active Wnt pathway; type: cell-based
# [1] = system: 21 purified protein kinases; experiment: Kinase panel assay (KinaseProfiler); type: biochemical; conditions: 1 µM A3373
# Protocol: (§1) Supplementary materials and methods […]
# In vitro kinase activity assays of A3373 were perfo rmed using the 21 kinase KinaseProfilerTM
# (eurofins). Kinase activity was determined aft er in cubation with 1 µM A3373, acco rding to the
# KinaseProfilerTM Service standard assay protocol s. […]
# PLD1 = biological target: T1, PLD1 (Mus musculus, UniProt Q9Z280); experiment: PLD1 activity in Pld2−/− MEFs; type: cell-based
# T1 construct: endogenous in cells; host or cells: immortalized Pld2-/- mouse embryonic fibroblasts
# T1 sequence (Q9Z280 1-1074): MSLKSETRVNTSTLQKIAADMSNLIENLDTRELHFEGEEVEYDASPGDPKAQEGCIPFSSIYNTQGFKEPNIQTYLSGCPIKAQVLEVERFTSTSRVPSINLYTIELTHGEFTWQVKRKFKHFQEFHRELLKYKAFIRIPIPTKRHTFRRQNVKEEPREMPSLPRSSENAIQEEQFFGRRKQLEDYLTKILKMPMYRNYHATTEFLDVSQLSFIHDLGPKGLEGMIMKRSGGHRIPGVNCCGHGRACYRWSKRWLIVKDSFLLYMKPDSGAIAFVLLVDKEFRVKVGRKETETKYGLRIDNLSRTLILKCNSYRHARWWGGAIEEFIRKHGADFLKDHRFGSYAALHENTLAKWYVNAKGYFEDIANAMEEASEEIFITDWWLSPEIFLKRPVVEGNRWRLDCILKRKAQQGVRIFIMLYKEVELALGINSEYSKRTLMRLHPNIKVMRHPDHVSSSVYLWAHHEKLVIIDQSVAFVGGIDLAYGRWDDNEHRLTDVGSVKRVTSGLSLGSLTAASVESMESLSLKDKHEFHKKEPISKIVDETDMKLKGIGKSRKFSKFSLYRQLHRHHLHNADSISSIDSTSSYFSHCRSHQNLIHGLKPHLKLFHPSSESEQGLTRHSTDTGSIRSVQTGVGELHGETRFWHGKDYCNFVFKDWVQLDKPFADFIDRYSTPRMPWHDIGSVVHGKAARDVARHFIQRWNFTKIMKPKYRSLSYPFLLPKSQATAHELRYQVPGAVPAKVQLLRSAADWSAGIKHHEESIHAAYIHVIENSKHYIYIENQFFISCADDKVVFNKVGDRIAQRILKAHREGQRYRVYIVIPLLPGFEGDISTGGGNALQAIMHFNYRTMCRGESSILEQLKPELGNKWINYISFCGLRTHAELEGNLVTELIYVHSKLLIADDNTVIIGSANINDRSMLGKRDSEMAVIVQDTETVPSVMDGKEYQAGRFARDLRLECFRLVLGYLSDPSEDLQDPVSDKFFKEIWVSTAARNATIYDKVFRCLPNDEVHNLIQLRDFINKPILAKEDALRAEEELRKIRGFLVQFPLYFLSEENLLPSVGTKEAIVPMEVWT
# Protocol: Cells were labeled with [H^3] myristic acid, and PLD activity was assessed by measuring the formation of [H^3] phosphatidylbutanol, which is the product of PLD-mediated transphosphatidylation, in the presence of 1-butanol, as previously described.
# We further investigated the effect of A3373 on the enzymatic inhibition of PLD1 and PLD2 in Pld^+/+, Pld1^−/−, and Pld2^−/− MEFs. […] Kinase profiling was used to evaluate the general selectivity of the lead compounds. […] To further investigate whether inhibition of PLD1 by A3373 occurs by binding to PLD1, we first modified A3373 by adding biotinylation instead of the F present in its structure and measured PLD activity.
# MC38-GFP-Luc cells = experiment: Colon cancer orthotopic model (MC38-GFP-Luc in cecum); type: in vivo, mouse
# Protocol: GFP-luciferase expressing MC38 murine CRC (MC38-GFP-Luc) cells were cocultured with bone marrow-derived macrophages (BMDMs). After 48 h, the macrophages were isolated and incubated with naïve T cells from the splenocytes of wild-type mice to generate CD8^+ T cells. The activated CD8^+ T cells were sorted using BD FACSAria III, added to wells containing MC38-GFP-Luc cells and titrated to effector cells (E) and the target cell (T) ratio (E/T ratio). Four hours later, CD8^+ T-cell-mediated killing of MC38-GFP-Luc cancer cells in each well was monitored using a luciferase-based bioluminescence imaging system.
# as §1
# A colon cancer orthotropic model was established using 6- weeks-old C57BL/6 male mice.
# Mice were administered a single IP injection of 2,2,2-Tribromoethanol (Avertin, Sigma - aldrich), an an esthetic . T he abdomen was shaved and the surgi cal site was draped in a sterile […]
# manner. The incision was extended to 2–3 cm, and the cecum was exposed. 2 × 10^5 MC38-GFP-Luciferas e cells were suspended in 50 µL PBS and injected into the cecum. Seven days after cell injection, 10 mg/kg A3373 was orally administered to the mice daily for 4 weeks. […]
# All mice wer e housed at 2 5°C under a 12:12 hou rs light/dark cycle. All animal procedu res were performed in accordance with the institutional guidelines for animal research and were approved by the Institutional Animal Care and Use Committee of Yonsei University (IACUC- […]
# In a colon cancer orthotropic model, tumor-infiltrating lymphocytes (TILs) were isolated from the tumor tissue 30 days after cell injection. Tumors wer e en zymatically di ssociated in RPMI media containing 10% FBS, 200 mg/mL collagenase IV (Sigma- Aldrich), 20 mg/mL hyaluronidase (Sigma-Al drich), and 20 mg/mL DNase I (Sigma Aldrich) at 37 ℃ with stirring.
# After 20 minutes of incubation, 0.1 M EDTA was added to prevent clumping. Cells were filtered through a 40 µm nylon mesh, single-cell suspensions were counted and used for the experiments. Finally, the TILs were resuspended in PBS containing 1% FBS. For the distribution of immune cells, anti- mouse CD45 microbeads were us ed according to the manufacturer’s instructions (Miltenyi Biotech). Isolated tumor cells were cultured for one passage to change the immunocompromised phenotype and assessed using flow cytometry.
# Splenocytes were isolat ed from mouse spleens, seeded at 5× 10^6 cells, and stimulated with 10 µg/mL MC38 GFP-Luciferase cell lysates. For intracellular cytokine staining, cells were […]
# hERG K^+ channel = biological target: T2, hERG K^+ channel (Homo sapiens, UniProt Q12809); experiment: hERG patch-clamp assay in HEK293 cells transfected with hERG; type: cell-based
# T2 construct: expressed in transfected cells; host or cells: HEK293
# Protocol: Both hERG assays were conducted as described previously.
# [2] = mesenteric lymph nodes, vs vehicle
# T2 sequence (Q12809 whole entry): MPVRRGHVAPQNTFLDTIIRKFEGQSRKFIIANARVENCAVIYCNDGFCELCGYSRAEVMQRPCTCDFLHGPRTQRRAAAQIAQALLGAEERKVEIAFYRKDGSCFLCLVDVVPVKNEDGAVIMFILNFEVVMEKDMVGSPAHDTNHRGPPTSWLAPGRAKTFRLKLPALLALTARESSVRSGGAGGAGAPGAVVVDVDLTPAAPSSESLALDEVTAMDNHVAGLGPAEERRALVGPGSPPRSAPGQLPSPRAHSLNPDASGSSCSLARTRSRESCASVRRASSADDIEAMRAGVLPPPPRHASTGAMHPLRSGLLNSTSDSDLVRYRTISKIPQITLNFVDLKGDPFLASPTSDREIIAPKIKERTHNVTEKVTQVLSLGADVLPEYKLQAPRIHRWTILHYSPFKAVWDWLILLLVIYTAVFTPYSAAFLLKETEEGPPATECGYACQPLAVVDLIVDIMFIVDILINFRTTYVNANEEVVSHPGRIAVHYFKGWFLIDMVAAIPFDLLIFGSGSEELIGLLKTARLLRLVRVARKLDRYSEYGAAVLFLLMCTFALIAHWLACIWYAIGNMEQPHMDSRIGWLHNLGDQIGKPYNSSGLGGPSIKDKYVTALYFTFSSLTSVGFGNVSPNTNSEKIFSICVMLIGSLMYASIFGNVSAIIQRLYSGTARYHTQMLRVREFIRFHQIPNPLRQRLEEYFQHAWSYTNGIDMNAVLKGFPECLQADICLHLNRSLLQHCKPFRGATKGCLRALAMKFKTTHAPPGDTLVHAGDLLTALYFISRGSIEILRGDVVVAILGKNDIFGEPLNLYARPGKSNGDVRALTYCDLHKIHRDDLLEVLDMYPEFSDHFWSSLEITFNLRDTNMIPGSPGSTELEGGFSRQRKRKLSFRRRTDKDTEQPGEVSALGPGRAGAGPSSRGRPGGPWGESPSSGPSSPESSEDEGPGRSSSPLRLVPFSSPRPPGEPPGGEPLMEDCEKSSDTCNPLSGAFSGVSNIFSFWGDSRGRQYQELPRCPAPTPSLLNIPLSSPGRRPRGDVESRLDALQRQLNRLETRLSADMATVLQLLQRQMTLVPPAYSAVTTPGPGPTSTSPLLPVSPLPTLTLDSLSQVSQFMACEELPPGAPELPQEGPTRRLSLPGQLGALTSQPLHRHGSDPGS
smiles,measurement,setting,value
O=C(Nc1cc(C(F)(F)F)cc(C(F)(F)F)c1)c1cc2cc(F)ccc2[nH]1 [Compound A3373],TCF transactivation in CRC cells,CRC cells,significantly suppressed TCF transactivation
same,effect on activity of 21 purified protein kinases,[1],no effect
same,"PLD1 activity, in words","PLD1; 2 μM, Pld−/− MEFs",suppressed
same,IC50,PLD1; Pld2−/− MEFs,325 nM
same,active caspase-3 and Ki67 in tumor tissues (IHC),MC38-GFP-Luc cells; 10 mg/kg every day for 4 weeks,increased levels of active caspase-3 and reduced levels of Ki67
same,mortality and tumor weight,"MC38-GFP-Luc cells; 10 mg/kg every day for 4 weeks, vs vehicle",significant reduction in mortality and tumor weight
same,"CD8+ T-cell-mediated killing, luciferase activity","MC38-GFP-Luc cells; MC38-GFP-Luc cells derived from treated mice, vs vehicle",significantly lower luciferase activity
same,"population of GFP+CD11b+ BMDMs, in words",MC38-GFP-Luc cells; coculture with MC38-GFP-Luc cells isolated from tumors,significantly increased the population of GFP^+CD11b^+ BMDMs
same,CD107a+ granzyme B+ and FasL+IFNγ+ CD8+ T cells,"MC38-GFP-Luc cells; mesenteric lymph nodes restimulated with MC38-GFP-Luc lysates, vs vehicle",increased population of CD107a^+ granzyme B^+ and FasL^+IFNγ^+ CD8^+ T cells
same,Foxp3+ cells in the CD4+ TCRβ+ gate,MC38-GFP-Luc cells; [2],decreased population of Foxp3^+ cells
same,IFNγ+ and IL17a+ in CD4+ T cells,MC38-GFP-Luc cells; [2],significantly increased the population of IFNγ^+ and IL17a^+ in CD4^+ T cells
same,IC50,hERG K^+ channel,> 50000 nM
